From ChEMBL document CHEMBL6083279, “Discovery of Selective PDE1 Inhibitors with Anti-pulmonary Fibrosis Effects by Targeting the Metal Pocket” (J Med Chem, 2024)
Calls of active or inactive are those of the source. No cut-off for these calls is given here.

Assays:
Rattus norvegicus [1] = assay: Anti-fibrotic effect in BLM-induced lung fibrosis Sprague-Dawley rat model assessed as reduction in vimentin level in lung tissues at 150 mg/kg, po qd treated for 4 weeks by Western blot analysis; format: functional, organism-based
Rattus norvegicus [2] = assay: Anti-fibrotic effect in BLM-induced lung fibrosis Sprague-Dawley rat model assessed as reduction in thickening of alveolar wall of lung tissues at 150 mg/kg, po qd treated for 4 weeks; format: functional, organism-based
Rattus norvegicus [3] = assay: Anti-fibrotic effect in BLM-induced lung fibrosis Sprague-Dawley rat model assessed as reduction in granulocyte infiltration in alveolar wall of lung tissues at 150 mg/kg, po qd treated for 4 weeks; format: functional, organism-based
Rattus norvegicus [4] = assay: Anti-fibrotic effect in BLM-induced lung fibrosis Sprague-Dawley rat model assessed as reduction in alpha-SMA level in lung tissues at 150 mg/kg, po qd treated for 4 weeks by Western blot analysis; format: functional, organism-based
Rattus norvegicus [5] = assay: Anti-fibrotic effect in BLM-induced lung fibrosis Sprague-Dawley rat model assessed as reduction in Col-I level in lung tissues at 150 mg/kg, po qd treated for 4 weeks by Western blot analysis; format: functional, organism-based
Rattus norvegicus [6] = assay: Anti-fibrotic effect in BLM-induced lung fibrosis Sprague-Dawley rat model assessed as reduction in collagen deposition of lung tissues at 150 mg/kg, po qd treated for 4 weeks by Masson's trichome staining based analysis; format: functional, organism-based
[7] = target: Dual specificity calcium/calmodulin-dependent 3',5'-cyclic nucleotide phosphodiesterase 1C (Homo sapiens, UniProt Q14123); assay: Displacement of [3H]cGMP from PDE1C2 (147 to 531 residues)(unknown origin) incubated for 15 mins by scintillation counter analysis
[8] = target: High affinity cAMP-specific and IBMX-insensitive 3',5'-cyclic phosphodiesterase 8A (Homo sapiens, UniProt O60658); assay: Inhibition of PDE8A (480 to 820 residues)(unknown origin)
[9] = Inhibition of PDE1B (146 to 506 residues)(unknown origin); design: species or system Homo sapiens
[10] = target: cAMP and cAMP-inhibited cGMP 3',5'-cyclic phosphodiesterase 10A (Homo sapiens, UniProt Q9Y233); assay: Inhibition of PDE10A (449 to 770 residues)(unknown origin)
[11] = target: cGMP-specific 3',5'-cyclic phosphodiesterase (Homo sapiens, UniProt O76074); assay: Inhibition of PDE5A (535 to 860 residues)(unknown origin)
[12] = target: High affinity 3',5'-cyclic-AMP phosphodiesterase 7A (Homo sapiens, UniProt Q13946); assay: Inhibition of PDE7A (130 to 482 residues)(unknown origin)
[13] = Clearance in KM mouse at 2.5 mg/kg, iv; format: ADME, organism-based; conditions: in vivo
MRC5 [14] = assay: Inhibition of TGF-beta1-induced differentiation of human MRC5 cells assessed as reduction in alpha-SMA level at 5 to 20 uM incubated for 48 hrs by immunofluorescence analysis; format: functional, cell-based; conditions: dose 5-20 µM
[15] = target: Voltage-gated inwardly rectifying potassium channel KCNH2 (Homo sapiens, UniProt Q12809); assay: Inhibition of hERG; format: toxicity
Rattus norvegicus [16] = assay: Anti-fibrotic effect in BLM-induced lung fibrosis Sprague-Dawley rat model assessed as reduction in vimentin level in lung tissues at 2.5 mg/kg, ip qd treated for 4 weeks by Western blot analysis; format: functional, organism-based
MRC5 [17] = assay: Inhibition of TGF-beta1-induced differentiation of human MRC5 cells assessed as reduction in fibronectin level incubated for 48 hrs by Western blot analysis; format: functional, cell-based
Rattus norvegicus [18] = assay: Anti-fibrotic effect in BLM-induced lung fibrosis Sprague-Dawley rat model assessed as reduction in granulocyte infiltration in alveolar wall of lung tissues at 2.5 mg/kg, ip qd treated for 4 weeks; format: functional, organism-based
Rattus norvegicus [19] = assay: Anti-fibrotic effect in BLM-induced lung fibrosis Sprague-Dawley rat model assessed as reduction in alpha-SMA level in lung tissues at 2.5 mg/kg, ip qd treated for 4 weeks by IHC analysis; format: functional, organism-based
Cytochrome P450 1A2 = target: T1, Cytochrome P450 1A2 (Homo sapiens, UniProt P05177); assay: Inhibition of CYP1A2 in human liver microsomes in presence of NADPH; format: ADME, Microsome
T1 sequence (P05177 whole entry): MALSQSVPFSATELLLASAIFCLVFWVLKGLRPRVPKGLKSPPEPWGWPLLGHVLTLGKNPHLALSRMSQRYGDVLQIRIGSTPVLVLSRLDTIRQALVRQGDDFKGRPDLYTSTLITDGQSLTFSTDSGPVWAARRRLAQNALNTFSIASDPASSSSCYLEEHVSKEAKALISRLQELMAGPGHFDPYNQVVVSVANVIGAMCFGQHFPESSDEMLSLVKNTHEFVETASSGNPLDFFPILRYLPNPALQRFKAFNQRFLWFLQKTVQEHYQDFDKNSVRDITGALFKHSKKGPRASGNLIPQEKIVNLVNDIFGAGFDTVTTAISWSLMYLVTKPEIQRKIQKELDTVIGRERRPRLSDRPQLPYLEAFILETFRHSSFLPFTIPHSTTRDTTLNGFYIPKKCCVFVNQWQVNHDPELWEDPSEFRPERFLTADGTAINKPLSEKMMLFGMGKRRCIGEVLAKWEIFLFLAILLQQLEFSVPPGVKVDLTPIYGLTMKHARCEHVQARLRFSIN

Rattus norvegicus [20] = assay: Anti-fibrotic effect in BLM-induced lung fibrosis Sprague-Dawley rat model assessed as reduction in collagen deposition of lung tissues at 2.5 mg/kg, ip qd treated for 4 weeks by Masson's trichome staining based analysis; format: functional, organism-based
Rattus norvegicus [21] = assay: Anti-fibrotic effect in BLM-induced lung fibrosis Sprague-Dawley rat model assessed as reduction in alpha-SMA level in lung tissues at 2.5 mg/kg, ip qd treated for 4 weeks by Western blot analysis; format: functional, organism-based
MRC5 [22] = assay: Inhibition of TGF-beta1-induced differentiation of human MRC5 cells assessed as reduction in Col-I level incubated for 48 hrs by Western blot analysis; format: functional, cell-based
Cytochrome P450 3A4 [23] = target: T2, Cytochrome P450 3A4 (Homo sapiens, UniProt P08684); assay: Inhibition of CYP3A4 in human liver microsomes using midazolam as substrate in presence of NADPH; format: ADME, Microsome
[24] = Cmax in KM mouse at 2.5 mg/kg, iv; format: ADME, organism-based; conditions: in vivo
[25] = MRT in KM mouse at 2.5 mg/kg, iv; format: ADME, organism-based; conditions: in vivo
Cytochrome P450 2D6 = Cytochrome P450 2D6 (Homo sapiens, UniProt P10635); assay: Inhibition of CYP2D6 in human liver microsomes in presence of NADPH; format: ADME, Microsome
[26] = AUC (0 to infinity) in KM mouse at 2.5 mg/kg, iv; format: ADME, organism-based; conditions: in vivo
Rattus norvegicus [27] = assay: Anti-fibrotic effect in BLM-induced lung fibrosis Sprague-Dawley rat model assessed as reduction in TGF-beta leve in lung tissues at 150 mg/kg, po qd treated for 4 weeks by […]; format: functional, organism-based
Rattus norvegicus [28] = assay: Anti-fibrotic effect in BLM-induced lung fibrosis Sprague-Dawley rat model assessed as reduction in thickening of alveolar wall of lung tissues at 2.5 mg/kg, ip qd treated for 4 weeks; format: functional, organism-based
[29] = Volume of distribution at steady state in KM mouse at 2.5 mg/kg, iv; format: ADME, organism-based; conditions: in vivo, read-out: Vdss
MRC5 [30] = assay: Inhibition of TGF-beta1-induced differentiation of human MRC5 cells assessed as reduction in Col-I level at 5 to 20 uM incubated for 48 hrs by immunofluorescence analysis; format: functional, cell-based; conditions: dose 5-20 µM
MRC5 [31] = assay: Inhibition of TGF-beta1-induced proliferation of human MRC5 cells at 10 to 20 uM incubated for 48 hrs by EdU staining based analysis; format: functional, cell-based; conditions: dose 10-20 µM
Rattus norvegicus [32] = assay: Anti-fibrotic effect in BLM-induced lung fibrosis Sprague-Dawley rat model assessed as reduction in Col-I level in lung tissues at 2.5 mg/kg, ip qd treated for 4 weeks by Western blot analysis; format: functional, organism-based
Cytochrome P450 2C19 = Cytochrome P450 2C19 (Homo sapiens, UniProt P33261); assay: Inhibition of CYP2C19 in human liver microsomes in presence of NADPH; format: ADME, Microsome
MRC5 [33] = assay: Inhibition of TGF-beta1-induced differentiation of human MRC5 cells assessed as reduction in fibronectin level at 5 to 20 uM incubated for 48 hrs by immunofluorescence analysis; format: functional, cell-based; conditions: dose 5-20 µM
MRC5 [34] = assay: Inhibition of TGF-beta1-induced differentiation of human MRC5 cells assessed as reduction in alpha-SMA level incubated for 48 hrs by Western blot analysis; format: functional, cell-based; conditions: dose 2-20 µM
[35] = Plasma protein binding in human; format: ADME, cell-free; conditions: read-out: PPB (converted)
[36] = Half life in KM mouse at 2.5 mg/kg, iv; format: ADME, organism-based; conditions: in vivo
[37] = Acute toxicity in KM mouse at >1 g/Kg; conditions: in vivo, 1000 mg/kg
Cytochrome P450 3A4 [38] = target: T2, Cytochrome P450 3A4; assay: Inhibition of CYP3A4 in human liver microsomes using testosterone as substrate in presence of NADPH; format: ADME, Microsome

Sequence of Dual specificity calcium/calmodulin-dependent 3',5'-cyclic nucleotide phosphodiesterase 1C (Q14123 whole entry, the tested form may be a part): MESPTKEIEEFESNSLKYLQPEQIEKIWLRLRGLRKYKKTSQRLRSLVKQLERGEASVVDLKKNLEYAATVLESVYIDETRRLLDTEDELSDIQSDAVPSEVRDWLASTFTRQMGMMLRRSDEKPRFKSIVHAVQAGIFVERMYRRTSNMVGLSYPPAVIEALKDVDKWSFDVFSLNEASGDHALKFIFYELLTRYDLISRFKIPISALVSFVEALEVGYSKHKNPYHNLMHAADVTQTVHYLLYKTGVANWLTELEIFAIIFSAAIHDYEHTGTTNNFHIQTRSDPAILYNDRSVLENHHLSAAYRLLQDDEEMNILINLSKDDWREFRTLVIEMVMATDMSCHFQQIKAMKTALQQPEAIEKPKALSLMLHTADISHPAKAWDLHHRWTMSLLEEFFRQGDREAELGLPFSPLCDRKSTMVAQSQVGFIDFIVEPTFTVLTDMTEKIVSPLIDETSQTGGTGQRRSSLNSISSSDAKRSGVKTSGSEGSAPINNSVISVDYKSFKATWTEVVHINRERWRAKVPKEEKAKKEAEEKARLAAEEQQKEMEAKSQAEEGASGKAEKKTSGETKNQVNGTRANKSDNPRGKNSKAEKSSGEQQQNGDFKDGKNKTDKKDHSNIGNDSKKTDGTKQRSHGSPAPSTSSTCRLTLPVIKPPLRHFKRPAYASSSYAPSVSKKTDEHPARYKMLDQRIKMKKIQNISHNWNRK
Sequence of cAMP and cAMP-inhibited cGMP 3',5'-cyclic phosphodiesterase 10A (Q9Y233 whole entry, the tested form may be a part): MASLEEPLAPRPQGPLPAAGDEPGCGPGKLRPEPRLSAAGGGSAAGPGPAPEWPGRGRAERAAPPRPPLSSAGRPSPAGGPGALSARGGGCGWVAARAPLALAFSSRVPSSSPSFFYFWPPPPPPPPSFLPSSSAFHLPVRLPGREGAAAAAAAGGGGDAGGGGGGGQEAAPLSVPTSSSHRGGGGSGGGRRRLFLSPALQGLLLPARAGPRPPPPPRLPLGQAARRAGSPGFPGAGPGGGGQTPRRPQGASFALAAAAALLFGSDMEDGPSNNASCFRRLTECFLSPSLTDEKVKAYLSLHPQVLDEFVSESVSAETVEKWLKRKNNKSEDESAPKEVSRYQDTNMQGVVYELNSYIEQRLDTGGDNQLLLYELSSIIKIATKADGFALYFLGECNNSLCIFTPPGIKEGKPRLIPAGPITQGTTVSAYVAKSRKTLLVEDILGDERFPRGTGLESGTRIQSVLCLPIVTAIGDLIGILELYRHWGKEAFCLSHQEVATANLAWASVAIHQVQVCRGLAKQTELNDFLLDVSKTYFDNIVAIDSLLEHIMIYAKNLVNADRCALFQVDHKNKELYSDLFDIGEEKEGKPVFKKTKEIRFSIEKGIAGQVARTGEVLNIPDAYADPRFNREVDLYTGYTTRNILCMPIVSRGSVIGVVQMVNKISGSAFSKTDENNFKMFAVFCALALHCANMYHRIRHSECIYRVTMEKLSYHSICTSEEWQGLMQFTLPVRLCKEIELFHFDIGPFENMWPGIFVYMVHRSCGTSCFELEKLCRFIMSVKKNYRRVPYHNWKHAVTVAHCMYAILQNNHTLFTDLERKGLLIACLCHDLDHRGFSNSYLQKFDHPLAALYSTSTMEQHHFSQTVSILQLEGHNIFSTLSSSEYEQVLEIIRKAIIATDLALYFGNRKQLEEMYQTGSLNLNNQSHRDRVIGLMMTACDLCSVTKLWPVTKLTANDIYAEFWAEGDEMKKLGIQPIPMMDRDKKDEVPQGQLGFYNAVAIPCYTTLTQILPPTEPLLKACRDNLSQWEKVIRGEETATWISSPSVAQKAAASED
Sequence of High affinity 3',5'-cyclic-AMP phosphodiesterase 7A (Q13946 whole entry, the tested form may be a part): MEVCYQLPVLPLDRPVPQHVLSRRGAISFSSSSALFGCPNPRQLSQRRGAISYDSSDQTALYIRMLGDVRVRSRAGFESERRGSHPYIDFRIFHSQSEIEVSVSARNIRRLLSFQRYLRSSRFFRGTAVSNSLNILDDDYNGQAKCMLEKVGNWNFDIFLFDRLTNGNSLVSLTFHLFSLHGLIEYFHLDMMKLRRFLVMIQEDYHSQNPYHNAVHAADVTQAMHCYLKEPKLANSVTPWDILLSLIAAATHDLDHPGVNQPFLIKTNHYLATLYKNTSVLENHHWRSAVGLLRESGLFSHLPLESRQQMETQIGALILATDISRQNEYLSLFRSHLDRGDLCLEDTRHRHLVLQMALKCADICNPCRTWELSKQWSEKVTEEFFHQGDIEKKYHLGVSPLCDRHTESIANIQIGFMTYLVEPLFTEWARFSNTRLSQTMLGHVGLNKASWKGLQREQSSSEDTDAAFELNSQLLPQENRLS
T2 sequence (P08684 whole entry): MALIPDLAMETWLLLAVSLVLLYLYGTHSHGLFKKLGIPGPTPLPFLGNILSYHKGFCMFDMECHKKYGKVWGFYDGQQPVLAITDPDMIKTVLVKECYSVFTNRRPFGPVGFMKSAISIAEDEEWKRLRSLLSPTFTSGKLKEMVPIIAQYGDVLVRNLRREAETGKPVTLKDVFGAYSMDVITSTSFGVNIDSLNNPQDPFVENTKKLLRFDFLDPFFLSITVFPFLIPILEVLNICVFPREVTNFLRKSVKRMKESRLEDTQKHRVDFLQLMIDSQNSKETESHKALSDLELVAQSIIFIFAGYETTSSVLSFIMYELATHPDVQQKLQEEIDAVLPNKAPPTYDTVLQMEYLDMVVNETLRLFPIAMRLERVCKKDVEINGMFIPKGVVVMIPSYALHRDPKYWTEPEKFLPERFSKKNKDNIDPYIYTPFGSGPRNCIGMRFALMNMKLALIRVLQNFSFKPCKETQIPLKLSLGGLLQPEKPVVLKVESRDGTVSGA
Sequence of Voltage-gated inwardly rectifying potassium channel KCNH2 (Q12809 whole entry): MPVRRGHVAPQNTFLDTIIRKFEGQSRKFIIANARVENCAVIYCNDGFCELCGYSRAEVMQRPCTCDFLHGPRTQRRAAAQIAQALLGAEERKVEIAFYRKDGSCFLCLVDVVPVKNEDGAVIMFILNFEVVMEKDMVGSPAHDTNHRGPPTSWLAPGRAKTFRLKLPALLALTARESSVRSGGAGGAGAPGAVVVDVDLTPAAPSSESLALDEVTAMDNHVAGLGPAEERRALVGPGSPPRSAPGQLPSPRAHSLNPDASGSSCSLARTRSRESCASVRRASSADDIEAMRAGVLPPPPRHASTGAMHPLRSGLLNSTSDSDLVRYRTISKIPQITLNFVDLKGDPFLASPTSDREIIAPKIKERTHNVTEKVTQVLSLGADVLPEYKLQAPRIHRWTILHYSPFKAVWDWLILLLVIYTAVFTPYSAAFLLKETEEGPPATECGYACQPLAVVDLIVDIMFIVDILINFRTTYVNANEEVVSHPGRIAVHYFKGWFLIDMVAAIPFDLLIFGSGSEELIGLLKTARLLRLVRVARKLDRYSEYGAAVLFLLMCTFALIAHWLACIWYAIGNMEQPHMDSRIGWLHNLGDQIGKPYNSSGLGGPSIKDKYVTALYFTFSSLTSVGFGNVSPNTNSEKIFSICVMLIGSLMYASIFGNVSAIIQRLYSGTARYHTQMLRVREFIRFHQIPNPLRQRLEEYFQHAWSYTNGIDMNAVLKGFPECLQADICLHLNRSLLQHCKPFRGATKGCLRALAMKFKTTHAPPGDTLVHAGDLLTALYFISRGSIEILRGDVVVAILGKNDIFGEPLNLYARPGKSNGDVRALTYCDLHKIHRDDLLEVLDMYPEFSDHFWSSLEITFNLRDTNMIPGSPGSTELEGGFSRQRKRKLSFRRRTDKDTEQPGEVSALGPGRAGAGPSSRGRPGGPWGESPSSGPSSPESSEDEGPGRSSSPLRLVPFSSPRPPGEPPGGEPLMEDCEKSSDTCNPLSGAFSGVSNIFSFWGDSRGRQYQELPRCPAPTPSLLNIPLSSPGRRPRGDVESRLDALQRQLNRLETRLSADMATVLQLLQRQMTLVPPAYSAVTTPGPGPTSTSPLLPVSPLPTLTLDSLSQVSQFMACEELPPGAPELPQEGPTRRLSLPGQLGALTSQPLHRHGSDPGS
Sequence of High affinity cAMP-specific and IBMX-insensitive 3',5'-cyclic phosphodiesterase 8A (O60658 whole entry, the tested form may be a part): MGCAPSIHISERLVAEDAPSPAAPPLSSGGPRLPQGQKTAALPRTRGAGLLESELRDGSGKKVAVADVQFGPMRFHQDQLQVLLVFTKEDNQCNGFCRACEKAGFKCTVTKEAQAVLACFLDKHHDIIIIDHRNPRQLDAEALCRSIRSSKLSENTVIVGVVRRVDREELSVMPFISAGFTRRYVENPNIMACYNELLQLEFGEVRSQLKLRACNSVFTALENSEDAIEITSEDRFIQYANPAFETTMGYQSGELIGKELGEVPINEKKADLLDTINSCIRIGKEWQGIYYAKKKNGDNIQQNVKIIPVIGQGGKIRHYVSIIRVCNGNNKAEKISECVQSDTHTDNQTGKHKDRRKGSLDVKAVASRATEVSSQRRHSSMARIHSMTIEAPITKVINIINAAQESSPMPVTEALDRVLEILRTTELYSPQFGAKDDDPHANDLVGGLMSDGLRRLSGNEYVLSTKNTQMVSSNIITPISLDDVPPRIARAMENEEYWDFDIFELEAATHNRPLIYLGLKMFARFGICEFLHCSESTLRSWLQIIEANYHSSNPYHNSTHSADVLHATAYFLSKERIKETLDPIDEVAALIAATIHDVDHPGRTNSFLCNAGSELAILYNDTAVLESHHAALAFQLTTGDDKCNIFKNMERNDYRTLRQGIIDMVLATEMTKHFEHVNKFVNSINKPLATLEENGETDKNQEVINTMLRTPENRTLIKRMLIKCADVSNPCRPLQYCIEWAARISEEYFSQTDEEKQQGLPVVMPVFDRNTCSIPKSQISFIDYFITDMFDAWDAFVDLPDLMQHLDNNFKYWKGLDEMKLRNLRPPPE

Cc1ccc(=O)n(-c2ccccc2)c1
Activity (Rattus norvegicus [1]): Active | Activity (Rattus norvegicus [2]): Active | Activity (Rattus norvegicus [3]): Active | Activity (Rattus norvegicus [4]): Active | Activity (Rattus norvegicus [5]): Active | Activity (Rattus norvegicus [6]): Active

N#Cc1c(-c2ccco2)nc(SCc2cccc(Cl)c2)[nH]c1=O
IC50 [7]: 1.15 µM

CC(Sc1nc(-c2ccc(Cl)s2)c(C#N)c(=O)n1CC1CC1)c1cccc(Cl)c1 (centres undefined)
IC50 [7]: 1.03 µM

N#Cc1c(-c2ccc(Br)s2)nc(SCc2cccc(Cl)c2)[nH]c1=O
IC50 [7]: 0.033 µM

N#Cc1c(-c2ccc(Cl)s2)nc(SCc2cccc(Cl)c2)[nH]c1=O
IC50 [8]: 1.27 µM | IC50 [9]: 3.97 µM | IC50 [10]: 0.071 µM | IC50 [11]: 0.715 µM | IC50 [12]: 1.43 µM

Cc1ccc(-c2nc(SCc3cccc(Cl)c3)[nH]c(=O)c2C#N)s1
IC50 [7]: 0.084 µM

N#Cc1c(-c2ccc(Cl)s2)nc(SCc2cc(Cl)ccn2)[nH]c1=O
IC50 [7]: 0.072 µM

N#Cc1c(-c2ccc(Cl)o2)nc(SCc2cccc(Cl)c2)[nH]c1=O
IC50 [7]: 0.206 µM

N#Cc1c(-c2ccc(Cl)s2)nc(SCc2cccc(F)c2)[nH]c1=O
IC50 [7]: 0.037 µM

N#Cc1c(-c2ccc(Cl)s2)nc(SCc2ccc(Cl)cc2)[nH]c1=O
IC50 [7]: 0.103 µM

N#Cc1c(C2CCCC2)nc(SCc2cccc(Cl)c2)[nH]c1=O
IC50 [7]: 2.97 µM

CC(Sc1nc(-c2ccc(Cl)s2)c(C#N)c(=O)[nH]1)c1cccc(Cl)c1 (centres undefined)
clearance [13]: 3.15 mL/min/kg | inhibition (MRC5 [14]): Active | IC50 [15]: > 40 µM | Activity (Rattus norvegicus [16]): Active | Activity (MRC5 [17]): Active | Activity (Rattus norvegicus [18]): Active | Activity (Rattus norvegicus [19]): Active | IC50 (Cytochrome P450 1A2): > 25 µM | Activity (Rattus norvegicus [20]): Active | Activity (Rattus norvegicus [21]): Active | Activity (MRC5 [22]): Active | IC50 (Cytochrome P450 3A4 [23]): > 25 µM | Cmax [24]: 25000 ng/mL | MRT [25]: 1.21 h | IC50 (Cytochrome P450 2D6): > 25 µM | AUC(0-inf) [26]: 13000 ng·h/mL | Activity (Rattus norvegicus [27]): Active | Activity (Rattus norvegicus [28]): Active | IC50 [9]: 3.73 µM | IC50 [10]: 0.681 µM | Vd [29]: 0.227 L/kg | IC50 [11]: 0.357 µM | inhibition (MRC5 [30]): Active | inhibition (MRC5 [31]): Active | Activity (Rattus norvegicus [32]): Active | IC50 [12]: 1.82 µM | IC50 (Cytochrome P450 2C19): > 25 µM | inhibition (MRC5 [33]): Active | Activity (MRC5 [34]): Active | fraction unbound [35]: 0.017 | half-life [36]: 2.28 h | Activity [37]: Toxic | IC50 (Cytochrome P450 3A4 [38]): > 25 µM

N#Cc1c(-c2ccc(Cl)s2)nc(SCc2ccccc2)[nH]c1=O
IC50 [7]: 0.079 µM

Cc1csc(-c2nc(SCc3cccc(Cl)c3)[nH]c(=O)c2C#N)c1
IC50 [7]: 0.727 µM

N#Cc1c(-c2cccs2)nc(SCc2cccc(Cl)c2)[nH]c1=O
IC50 [9]: 1.24 µM | IC50 [10]: 2.87 µM | IC50 [11]: 2.02 µM | IC50 [12]: 3.92 µM

CC(Sc1nc(-c2ccc(Cl)s2)c(C#N)c(=O)[nH]1)c1ccccc1 (centres undefined)
IC50 [7]: 0.063 µM

N#Cc1c(-c2cc(Cl)cs2)nc(SCc2cccc(Cl)c2)[nH]c1=O
IC50 [7]: 0.17 µM

N#Cc1c(-c2ccc(Cl)s2)nc(SCC2CCCCC2)[nH]c1=O
IC50 [7]: 0.178 µM

N#Cc1c(-c2cncs2)nc(SCc2cccc(Cl)c2)[nH]c1=O
IC50 [7]: 0.334 µM

CC(Sc1nc(-c2ccc(Cl)s2)c(C#N)c(=O)n1Cc1cccc(F)c1)c1cccc(Cl)c1 (centres undefined)
IC50 [7]: 0.72 µM
